Test results reported in patent US8846739B2, “TGR5 agonists” (Exelixis Patent Company LLC, priority 2009, dated 2014).

Tests used:
human TGR5 (h-TGR5) = molecular target: T1, human TGR5 (h-TGR5) (Homo sapiens, UniProt Q8TDU6); test: TGR5/CRE-Luciferase Assay; format: cell-based; details: HEK 293 hTGR5/CRE-Luc cells, 6 hours incubation, read-out: CRE-Luc Agonist (EC50)
T1 sequence (Q8TDU6 1-330): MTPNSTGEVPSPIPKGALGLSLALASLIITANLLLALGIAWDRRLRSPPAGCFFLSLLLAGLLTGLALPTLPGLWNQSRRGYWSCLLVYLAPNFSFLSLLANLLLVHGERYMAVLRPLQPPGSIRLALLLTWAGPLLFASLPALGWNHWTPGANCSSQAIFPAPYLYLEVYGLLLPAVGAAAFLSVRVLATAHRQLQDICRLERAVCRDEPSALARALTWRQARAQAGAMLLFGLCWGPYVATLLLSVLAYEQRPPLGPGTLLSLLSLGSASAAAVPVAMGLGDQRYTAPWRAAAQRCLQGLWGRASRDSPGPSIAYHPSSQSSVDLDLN
Outline: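 HEK 293 CRE-Luciferase cells stably expressing the receptor, plated in DMEM 18-20 h before assay, then exposed to serially diluted compounds (DMEM with 5% DMSO) for 6 h. Luciferase read-out after lysis; EC50 from dose-response.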

h-TGR5 = molecular target: T2, h-TGR5 (Homo sapiens, UniProt Q8TDU6); test: TGR5 cAMP Assay using Cisbio cAMP Dynamic 2 htrf assay kit; format: cell-based; details: hTGR5CRE-luc HEK 293 cells
T2 sequence (Q8TDU6 1-330): T1 sequence (Q8TDU6 1-330)

SMILES	EC50 (human TGR5 (h-TGR5)) [nM]	EC50 (h-TGR5) [nM]
COc1cc(-n2c(C(C)(C)c3ccc(F)c(Cl)c3)cnc2SCc2c(F)cc(S(=O)(=O)NCCC[N+](C)(C)C)cc2F)ccc1F [Example 6h, 3-[({4-[({5-[1-(3-chloro-4-fluorophenyl)-1-methylethyl]-1-[4-fluoro-3-(methyloxy)phenyl]-1H-imidazol-2-yl}thio)methyl]-3,5-difluorophenyl}sulfonyl)amino]-N,N,N-trimethylpropan-1-aminium]	< 100	< 100
COc1cc(C(C)(C)c2cnc(SCc3c(F)cc(S(=O)(=O)N(CCC[N+](C)(C)C)CCC[N+](C)(C)C)cc3F)n2-c2ccc(F)cc2)ccc1Cl [Example 6i, 3,3′-({[4-({[5-{1-[4-chloro-3-(methyloxy)phenyl]-1-methylethyl}-1-(4-fluorophenyl)-1H-imidazol-2-yl]thio}methyl)-3,5-difluorophenyl]sulfonyl}imino)bis(N,N,N-trimethylpropan-1-aminium)]	100 to 1000	< 100
COc1cc(C(C)(C)c2cnc(SCc3c(F)cc(S(=O)(=O)NCCC[N+](C)(C)C)cc3Cl)n2-c2ccc(F)cc2)ccc1Cl [Example 6j, 3-({[3-chloro-4-({[5-{1-[4-chloro-3-(methyloxy)phenyl]-1-methylethyl}-1-(4-fluorophenyl)-1H-imidazol-2-yl]thio}methyl)-5-fluorophenyl]sulfonyl}amino)-N,N,N-trimethylpropan-1-aminium]	< 100	< 100
COc1cc(C(C)(C)c2cnc(SCc3c(F)cc(S(=O)(=O)NCC[N+](C)(C)C)cc3F)n2-c2ccc(F)cc2)ccc1Cl [Example 6k, 2-({[4-({[5-{1-[4-chloro-3-(methyloxy)phenyl]-1-methylethyl}-1-(4-fluorophenyl)-1H-imidazol-2-yl]thio}methyl)-3,5-difluorophenyl]sulfonyl}amino)-N,N,N-trimethylethanaminium]	< 100	< 100
COc1cc(C(C)(C)c2cnc(SCc3ccc(Cl)c(S(=O)(=O)NCCC[N+](C)(C)C)c3)n2-c2ccc(F)cc2)ccc1Cl [Example 6l, 3-({[2-chloro-5-({[5-{1-[4-chloro-3-(methyloxy)phenyl]-1-methylethyl}-1-(4-fluorophenyl)-1H-imidazol-2-yl]thio}methyl)phenyl]sulfonyl}amino)-N,N,N-trimethylpropan-1-aminium]	< 100	< 100
CC[N+](CC)(CC)CCCNS(=O)(=O)c1cc(F)c(CSc2ncc(C(C)(C)c3ccc(Cl)c(OC)c3)n2-c2ccc(F)cc2)c(F)c1 [Example 6m, 3-({[4-({[5-{1-[4-chloro-3-(methyloxy)phenyl]-1-methylethyl}-1-(4-fluorophenyl)-1H-imidazol-2-yl]thio}methyl)-3,5-difluorophenyl]sulfonyl}amino)-N,N,N-triethylpropan-1-aminium]	< 100	< 100
COc1ccc(C(C)(C)c2cnc(SCc3c(F)cc(S(=O)(=O)NCCC[N+](C)(C)C)cc3F)n2-c2ccc(F)cc2)cc1Cl [Example 6n, 3-({[4-({[5-{1-[3-chloro-4-(methyloxy)phenyl]-1-methylethyl}-1-(4-fluorophenyl)-1H-imidazol-2-yl]thio}methyl)-3,5-difluorophenyl]sulfonyl}amino)-N,N,N-trimethylpropan-1-aminium]	< 100	< 100
CC[N+](CC)(CC)CCCNS(=O)(=O)c1cc(F)c(CSc2ncc(C(C)(C)c3ccc(F)c(OC)c3)n2-c2ccc(F)cc2)c(Cl)c1 [Example 6o, 3-({[3-chloro-5-fluoro-4-({[5-{1-[4-fluoro-3-(methyloxy)phenyl]-1-methylethyl}-1-(4-fluorophenyl)-1H-imidazol-2-yl]thio}methyl)phenyl]sulfonyl}amino)-N,N,N-triethylpropan-1-aminium]	< 100	< 100
